# Key:
# PIM2 = molecular target: T1, PIM2 (Homo sapiens, UniProt Q9P1W9); test: KINOMEscan competition binding assay, PIM2
# T1 construct: purchased Eurofins (KINOMEscan assay service); host or cells: E. coli BL21-derived (T7 phage) or HEK-293
# Source text: (§1) The Hill Slope was set to −1.
# DOHH-2 = test: Cell viability assay, lymphoma cell line DOHH-2; assay type: cell-based; conditions: Homo sapiens; DOHH-2 lymphoma cell line
# Description: (§2) Antitumor activity of the compounds and doxorubicin as a positive control was assessed by using the CellTiter-Blue Cell Viability Assay (Promega, #G8082) or CellTiter-Glow® Luminescent Cell Viability assay (Promega # G7572) according to the manufacturer's instructions. The compounds were tested at 5 or 6 concentrations in half-log increments (highest concentration 30 μM-100 μM) in duplicate or triplicate well conditions.
# (§3) Tumor cells were grown at 37° C. in a humidified atmosphere with 5% CO2 in RPMI 1640 or DMEM medium, supplemented with 10% (v/v) fetal calf serum and 50 μg/ml gentamicin for up to 20 passages, and were passaged once or twice weekly. Cells were harvested using TrypLE or PBS buffer containing 1 mM EDTA, and the percentage of viable cells is determined using a CASY Model TT cell counter (OMNI Life Science). Cells were harvested from exponential phase cultures, counted and plated in 96 well flat-bottom microtiter plates at a cell density depending on the cell line's growth rate (4,000-20,000 cells/well depending on the cell line's growth rate, up to 60,000 for hematological cancer cell lines) in RPMI 1640 or DMEM medium supplemented with 10% (v/v) fetal calf serum and 50 μg/ml gentamicin (140 μl/well). […] Viability of cells was quantified by the CellTiter-Blue® cell viability assay (Promega G8081) or CellTiter-Glow® Luminescent Cell Viability assay (Promega # G7572). […]
# MCF-7 = test: Cell viability assay, breast carcinoma cell line MCF-7; assay type: cell-based; conditions: Homo sapiens, MCF7; MCF-7 breast carcinoma cell line
# Description: as §2, §3
# brain cancer cell = test: Cell viability assay, brain cancer cell lines (summary); assay type: cell-based; conditions: summary of Tables 3A-D; read-out: IC50s, brain cancer cell growth
# Description: as §2
# (§4) Tumor cells were grown at 37° C. in a humidified atmosphere with 5% CO2 in RPMI 1640 or DMEM medium, supplemented with 10% (v/v) fetal calf serum and 50 μg/ml gentamicin for up to 20 passages, and were passaged once or twice weekly. Cells were harvested using TrypLE or PBS buffer containing 1 mM EDTA, and the percentage of viable cells is determined using a CASY Model TT cell counter (OMNI Life Science). Cells were harvested from exponential phase cultures, counted and plated in 96 well flat-bottom microtiter plates at a cell density depending on the cell line's growth rate (4,000-20,000 cells/well depending on the cell line's growth rate, up to 60,000 for hematological cancer cell lines) in RPMI 1640 or DMEM medium supplemented with 10% (v/v) fetal calf serum and 50 μg/ml gentamicin (140 μl/well). Cultures were incubated at 37° C. and 5% CO2 in a humidified atmosphere. After 24 h, 10 μl of test compounds or control medium are added, and left on the cells for another 72 h. Compounds were serially diluted in DMSO, transferred in cell culture medium, and added to the assay plates. The DMSO concentration was kept constant at <0.3% v/v across the assay plate. Viability of cells was quantified by the CellTiter-Blue® cell viability assay (Promega G8081) or CellTiter-Glow® Luminescent Cell Viability assay (Promega # G7572). Fluorescence (FU) was measured by using the EnSpire® multimode plate reader (Perkin Elmer) (excitation λ=570 nm, emission λ=600 nm) or luminescent detection of ATP in viable cells was used as parameter for proliferation. Luminescence was measured with the microplate luminometer (Promega or Perkin Elmer).
# (§5) Sigmoidal concentration-response curves were fitted to the data points (test-versus-control, T/C values) obtained for each tumor model using 4 parameter non-linear curve fit (Charles River DRS Datawarehouse Software) or with GraphPad prism 5.02 software. IC50 values are reported as absolute IC50 values, being the concentration of test compound at the intersection of the concentration-response curves with T/C=50%
# GA-10 = test: Cell viability assay, lymphoma cell line GA-10; assay type: cell-based; conditions: Homo sapiens; GA-10 lymphoma cell line
# Description: as §2, §3
# NALM-6 = test: Cell viability assay, leukaemia cell line NALM-6; assay type: cell-based; conditions: Homo sapiens; NALM-6 leukaemia cell line
# Description: as §2, §3
# CO-04-0700 = test: PDX cytotoxicity assay, colon PDX CO-04-0700; assay type: cell-based
# Description: (§6) PDX-derived cell cultures were obtained from tumors explanted from mice and isolated by mechanical and enzymatic dissociation. […] Cells were harvested and seeded in 96-wells plates at a density of 1.25 to 5×10^3 cells/well for cytotoxicity assays. Cells were incubated 48 h at 37° C. prior to addition of test molecules and vehicle (DMSO, 0.1%) at desired final concentrations. Cell viability was assessed before drugs' addition (T0) and 5 days after test molecules addition by measuring ATP cell content using CellTiter-Glo® Luminescent Cell Viability Assay (Promega) according to the manufacturer's instructions. Luciferase activity was measured on a luminometer (PerkinElmer® EnVision™). Each concentration of compounds was tested in triplicate.
# (§7) Viability was calculated as a percentage of ATP value compared to vehicle treated controls.
# (§8) For PDX primary cell cultures, the tumour tissue was washed with PBS containing antibiotic-antimycotic and non-tumour tissue and necrotic tumour tissues were separated. The tumour tissue was transferred to a new dish and cut into 1˜2 mm^3 fragments, resuspended in RPMI-1640 medium and centrifuged at 1,200 rpm for 6 min at room temperature. The pelleted material was resuspended with 15 mL of Tumour Cell Digestion Solution and incubated at 37° C. for 1 hour with agitation. […]
# LY-24-0340 = test: PDX cytotoxicity assay, lymphoma PDX LY-24-0340; assay type: cell-based
# Description: as §6, §7, §8
# SU-DHL-4 = test: Cell viability assay, lymphoma cell line SU-DHL-4; assay type: cell-based; conditions: Homo sapiens; SU-DHL-4 lymphoma cell line
# Description: as §2, §3
# SNARK = molecular target: T2, SNARK (Homo sapiens, UniProt Q9H093); test: KINOMEscan competition binding assay, SNARK
# T2 construct: purchased Eurofins (KINOMEscan assay service); host or cells: E. coli BL21-derived (T7 phage) or HEK-293
# Source text: as §1
# NAWALMA = test: Cell viability assay, lymphoma cell line NAWALMA; assay type: cell-based
# Description: as §2, §3
# U-87MG = test: Cell viability assay, brain carcinoma cell line U-87MG; assay type: cell-based; conditions: Homo sapiens; U-87MG brain carcinoma cell line, 72 h, absolute IC50
# Description: as §2, §4, §5
# ES-06-0122 = test: PDX cytotoxicity assay, esophagus PDX ES-06-0122; assay type: cell-based
# Description: as §6, §7, §8
# breast cancer cell = test: Cell viability assay, breast cancer cell lines (summary); assay type: cell-based; conditions: summary of Tables 4A and 4B; read-out: IC50s, breast cancer cell growth
# Description: as §2, §4, §5
# HN-13-0020 = test: PDX cytotoxicity assay, head and neck PDX HN-13-0020; assay type: cell-based
# Description: as §6, §7, §8
# lung carcinoma cell = test: Cell viability assay, lung carcinoma cell lines (summary); assay type: cell-based; conditions: summary of Tables 7A-E; read-out: IC50s, lung carcinoma cell growth
# Description: as §2, §4, §5
# K562 = test: Cell viability assay, leukaemia cell line K562; assay type: cell-based; conditions: Homo sapiens
# Description: as §2, §3
# HBCx-3 = test: PDX cytotoxicity assay, breast PDX HBCx-3; assay type: cell-based
# Description: as §6, §7, §8
# CH-17-0091 = test: PDX cytotoxicity assay, bile duct PDX CH-17-0091; assay type: cell-based
# Description: as §6, §7, §8
# T2 sequence (Q9H093 whole entry): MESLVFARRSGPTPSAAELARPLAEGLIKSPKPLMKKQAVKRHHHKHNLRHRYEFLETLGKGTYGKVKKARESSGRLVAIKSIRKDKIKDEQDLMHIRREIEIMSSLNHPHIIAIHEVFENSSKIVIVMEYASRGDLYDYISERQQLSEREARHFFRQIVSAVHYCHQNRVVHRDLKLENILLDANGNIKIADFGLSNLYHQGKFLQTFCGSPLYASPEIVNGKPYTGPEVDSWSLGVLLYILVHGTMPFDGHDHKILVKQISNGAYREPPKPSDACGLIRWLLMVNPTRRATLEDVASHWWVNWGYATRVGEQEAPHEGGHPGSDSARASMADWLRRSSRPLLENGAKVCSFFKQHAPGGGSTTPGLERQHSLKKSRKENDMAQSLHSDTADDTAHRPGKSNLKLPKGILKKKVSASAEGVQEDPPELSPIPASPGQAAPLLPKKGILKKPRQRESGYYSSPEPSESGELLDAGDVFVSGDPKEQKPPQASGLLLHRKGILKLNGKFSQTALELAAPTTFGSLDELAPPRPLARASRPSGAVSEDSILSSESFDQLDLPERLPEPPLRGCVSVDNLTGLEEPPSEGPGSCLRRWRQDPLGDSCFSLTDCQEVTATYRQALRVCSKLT
# T1 sequence (Q9P1W9 whole entry): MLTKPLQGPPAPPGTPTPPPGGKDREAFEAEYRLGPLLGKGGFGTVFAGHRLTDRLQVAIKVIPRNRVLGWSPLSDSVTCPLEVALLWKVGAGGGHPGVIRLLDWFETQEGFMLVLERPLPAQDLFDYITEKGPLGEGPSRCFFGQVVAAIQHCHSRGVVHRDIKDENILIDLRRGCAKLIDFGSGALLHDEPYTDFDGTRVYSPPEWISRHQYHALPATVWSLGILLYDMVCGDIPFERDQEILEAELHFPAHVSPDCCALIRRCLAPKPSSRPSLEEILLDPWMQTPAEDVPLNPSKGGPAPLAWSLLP
smiles,measurement,setting,value
COc1c(O)ccc2c(=O)cc(-c3ccc(CNCCCCNCCCN)cc3)oc12 [SND164],Kd,PIM2,0.63 µM
same,IC50,DOHH-2,4.3 µM
same,IC50,MCF-7,4.3 µM
same,IC50,brain cancer cell,< 10 µM
same,IC50,GA-10,3.9 µM
same,IC50,NALM-6,4.45 µM
same,IC50,CO-04-0700,7 µM
same,IC50,LY-24-0340,< 0.16 µM
same,IC50,SU-DHL-4,3.3 µM
same,Kd,SNARK,0.9 µM
same,IC50,NAWALMA,2.6 µM
same,IC50,U-87MG,5.7 µM
same,IC50,ES-06-0122,5.7 µM
same,IC50,breast cancer cell,< 10 µM
same,IC50,HN-13-0020,2.7 µM
same,IC50,lung carcinoma cell,< 20 µM
same,IC50,K562,3.48 µM
same,IC50,HBCx-3,10 µM
same,IC50,CH-17-0091,13.8 µM

# From patent US20240132461A1, “FLAVONE DEAZA SPERMIDINE ANALOGUES AND THEIR USE TREATING CANCER” (FLORATEK PHARMA S.A., priority 2021, published 2024)
